Common to all, as to assay: biochemical
Common to all, as to design: DiscoveRx KINOMEscan active site-directed competition binding; percent of control kinase bound to immobilised ligand

In one experiment the target is T1, ADCK4 (Homo sapiens, UniProt Q96D53).
T1 construct: gene COQ8B
T1 sequence (Q96D53 1-544): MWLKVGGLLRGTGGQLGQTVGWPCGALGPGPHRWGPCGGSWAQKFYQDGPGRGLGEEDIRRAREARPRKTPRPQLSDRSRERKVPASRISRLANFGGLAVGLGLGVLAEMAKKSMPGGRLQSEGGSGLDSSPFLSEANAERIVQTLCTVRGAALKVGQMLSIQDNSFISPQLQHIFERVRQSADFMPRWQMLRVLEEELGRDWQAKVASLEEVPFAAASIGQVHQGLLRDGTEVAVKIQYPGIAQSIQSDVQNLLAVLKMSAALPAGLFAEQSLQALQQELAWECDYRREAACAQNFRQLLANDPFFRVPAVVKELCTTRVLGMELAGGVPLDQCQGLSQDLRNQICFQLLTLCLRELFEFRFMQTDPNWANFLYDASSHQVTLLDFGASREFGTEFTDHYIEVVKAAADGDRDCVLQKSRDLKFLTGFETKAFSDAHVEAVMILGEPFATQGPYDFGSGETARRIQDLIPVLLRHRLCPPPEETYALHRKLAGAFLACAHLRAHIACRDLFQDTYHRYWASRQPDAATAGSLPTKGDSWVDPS

The next experiment has as its target T2, GAK (Homo sapiens, UniProt O14976).
T2 sequence (O14976 1-1311): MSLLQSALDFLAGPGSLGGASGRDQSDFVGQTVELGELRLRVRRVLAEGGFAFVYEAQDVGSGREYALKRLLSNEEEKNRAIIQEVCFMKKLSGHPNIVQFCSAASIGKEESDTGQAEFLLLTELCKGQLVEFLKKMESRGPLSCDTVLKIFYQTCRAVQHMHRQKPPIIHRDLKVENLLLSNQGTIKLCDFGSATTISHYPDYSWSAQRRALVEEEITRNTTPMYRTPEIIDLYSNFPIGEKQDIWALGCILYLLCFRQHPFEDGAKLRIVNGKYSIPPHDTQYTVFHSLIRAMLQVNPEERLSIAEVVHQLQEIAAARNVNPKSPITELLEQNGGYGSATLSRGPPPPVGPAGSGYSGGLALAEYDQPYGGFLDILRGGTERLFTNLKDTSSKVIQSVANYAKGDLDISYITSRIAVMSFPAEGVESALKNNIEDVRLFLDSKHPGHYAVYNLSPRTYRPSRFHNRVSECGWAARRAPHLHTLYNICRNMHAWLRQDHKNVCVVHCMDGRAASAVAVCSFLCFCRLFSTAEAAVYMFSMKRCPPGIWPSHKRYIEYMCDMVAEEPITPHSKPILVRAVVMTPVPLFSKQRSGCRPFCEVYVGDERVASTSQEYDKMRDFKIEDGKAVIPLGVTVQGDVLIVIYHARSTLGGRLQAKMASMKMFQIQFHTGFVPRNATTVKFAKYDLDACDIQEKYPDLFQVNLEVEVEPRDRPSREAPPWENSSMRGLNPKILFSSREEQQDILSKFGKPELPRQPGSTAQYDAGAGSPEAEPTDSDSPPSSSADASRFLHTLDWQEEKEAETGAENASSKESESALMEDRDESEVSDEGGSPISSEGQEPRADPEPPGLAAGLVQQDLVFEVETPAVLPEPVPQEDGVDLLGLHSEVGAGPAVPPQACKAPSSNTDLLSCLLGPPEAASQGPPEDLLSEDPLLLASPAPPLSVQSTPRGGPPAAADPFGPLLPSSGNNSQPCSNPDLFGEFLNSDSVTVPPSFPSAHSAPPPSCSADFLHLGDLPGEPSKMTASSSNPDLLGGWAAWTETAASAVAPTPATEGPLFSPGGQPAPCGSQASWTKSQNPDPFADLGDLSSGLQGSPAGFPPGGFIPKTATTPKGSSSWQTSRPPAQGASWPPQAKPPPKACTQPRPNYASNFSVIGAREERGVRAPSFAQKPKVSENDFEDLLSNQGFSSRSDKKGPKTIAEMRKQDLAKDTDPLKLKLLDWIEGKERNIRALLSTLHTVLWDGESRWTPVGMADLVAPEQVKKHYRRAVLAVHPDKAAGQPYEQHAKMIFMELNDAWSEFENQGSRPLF

For the next experiment, the target named is T3, TTK (Homo sapiens, UniProt P33981).
T3 sequence (P33981 1-857): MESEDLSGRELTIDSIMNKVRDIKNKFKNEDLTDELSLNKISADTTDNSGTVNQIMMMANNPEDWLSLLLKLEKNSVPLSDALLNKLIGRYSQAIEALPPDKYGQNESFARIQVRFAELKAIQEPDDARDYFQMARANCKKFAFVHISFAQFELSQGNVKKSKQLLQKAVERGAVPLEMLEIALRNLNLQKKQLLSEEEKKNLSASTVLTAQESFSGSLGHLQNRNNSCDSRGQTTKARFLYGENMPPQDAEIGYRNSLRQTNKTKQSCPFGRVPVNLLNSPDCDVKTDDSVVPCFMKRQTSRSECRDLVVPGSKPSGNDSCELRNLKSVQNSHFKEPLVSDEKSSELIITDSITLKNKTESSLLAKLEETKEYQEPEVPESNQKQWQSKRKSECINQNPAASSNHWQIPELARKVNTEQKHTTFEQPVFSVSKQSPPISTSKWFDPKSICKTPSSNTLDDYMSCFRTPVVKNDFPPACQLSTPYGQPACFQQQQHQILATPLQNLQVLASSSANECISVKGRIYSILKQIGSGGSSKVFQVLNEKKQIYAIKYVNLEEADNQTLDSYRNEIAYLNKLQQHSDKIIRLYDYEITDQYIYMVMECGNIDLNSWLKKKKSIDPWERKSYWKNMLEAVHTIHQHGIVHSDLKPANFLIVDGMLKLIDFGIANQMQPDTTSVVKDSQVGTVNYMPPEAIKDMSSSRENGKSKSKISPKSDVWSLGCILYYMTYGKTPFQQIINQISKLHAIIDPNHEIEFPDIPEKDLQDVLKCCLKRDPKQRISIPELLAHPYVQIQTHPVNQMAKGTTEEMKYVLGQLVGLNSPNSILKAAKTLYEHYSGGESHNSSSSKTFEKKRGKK

Another experiment deals with PIK3CB (Homo sapiens, UniProt P42338).
PIK3CB, sequence (P42338 whole entry): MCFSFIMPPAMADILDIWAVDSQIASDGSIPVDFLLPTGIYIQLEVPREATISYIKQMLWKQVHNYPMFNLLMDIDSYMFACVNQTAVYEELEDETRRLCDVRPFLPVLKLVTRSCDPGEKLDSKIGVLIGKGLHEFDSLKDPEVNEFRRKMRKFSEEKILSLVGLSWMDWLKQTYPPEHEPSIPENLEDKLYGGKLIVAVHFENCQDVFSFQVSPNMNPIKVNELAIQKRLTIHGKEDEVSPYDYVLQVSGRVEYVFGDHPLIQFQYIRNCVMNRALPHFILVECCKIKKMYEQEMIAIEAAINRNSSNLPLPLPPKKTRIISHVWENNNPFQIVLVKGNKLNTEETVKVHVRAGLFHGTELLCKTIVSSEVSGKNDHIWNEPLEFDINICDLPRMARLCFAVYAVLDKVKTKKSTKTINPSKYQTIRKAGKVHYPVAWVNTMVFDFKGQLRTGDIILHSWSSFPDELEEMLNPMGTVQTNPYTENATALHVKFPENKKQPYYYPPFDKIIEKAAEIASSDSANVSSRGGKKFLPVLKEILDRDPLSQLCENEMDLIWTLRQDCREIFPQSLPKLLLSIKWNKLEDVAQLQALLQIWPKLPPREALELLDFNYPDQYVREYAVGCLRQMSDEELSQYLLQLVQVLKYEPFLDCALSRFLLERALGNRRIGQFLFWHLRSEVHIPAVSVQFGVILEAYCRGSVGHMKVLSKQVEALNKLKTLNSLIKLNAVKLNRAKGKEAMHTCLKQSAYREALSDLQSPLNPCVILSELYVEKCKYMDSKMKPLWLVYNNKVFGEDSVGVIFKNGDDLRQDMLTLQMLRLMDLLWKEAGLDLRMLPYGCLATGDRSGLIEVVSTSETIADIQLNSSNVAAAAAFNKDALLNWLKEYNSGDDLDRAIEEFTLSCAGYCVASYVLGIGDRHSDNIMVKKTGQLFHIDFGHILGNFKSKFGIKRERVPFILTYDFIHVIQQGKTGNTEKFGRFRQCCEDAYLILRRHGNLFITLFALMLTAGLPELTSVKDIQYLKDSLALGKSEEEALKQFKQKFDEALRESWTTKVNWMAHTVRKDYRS
The mark [1] stands for this setting: read-out: Niraparib (MK-4827) / %Ctrl @ 10000nM.
The mark [2] stands for this setting: read-out: Talazoparib (BMN 673) / %Ctrl @ 10000nM.
Setting [3] is: read-out: Rucaparib / %Ctrl @ 10000nM, binding competition, % of control.
[4] abbreviates: read-out: Olaparib / %Ctrl @ 10000nM.

Structures are written as SMILES. Read-outs that look alike come from different tables or passages of the source.

As to `NC(=O)c1cccc2cn(-c3ccc([C@@H]4CCCNC4)cc3)nc12` [Niraparib], the percent of control binding at 10 µM on ADCK4 (setting [1]) worked out at 100%; on GAK (setting [1]) it was 58%; at TTK (setting [1]), 54%; on PIK3CB (setting [1]), 100%.
`Cn1ncnc1[C@H]1c2n[nH]c(=O)c3cc(F)cc(c23)N[C@@H]1c1ccc(F)cc1` [Talazoparib]: the percent of control binding at 10 µM on ADCK4 (setting [2]) was 100%; on GAK (setting [2]), 100%; on TTK (setting [2]) it was 99%; on PIK3CB (setting [2]), 100%.
Consider `CNCc1ccc(-c2[nH]c3cc(F)cc4c3c2CCNC4=O)cc1` [Rucaparib], for which the percent of control binding at 10 µM at ADCK4 (setting [3]) worked out at 82%; on GAK (setting [3]), 35%; at TTK (setting [3]), 20%; on PIK3CB (setting [3]), 83%.
Consider `O=C(c1cc(Cc2n[nH]c(=O)c3ccccc23)ccc1F)N1CCN(C(=O)C2CC2)CC1` [Olaparib], for which the percent of control binding at 10 µM on ADCK4 (setting [4]) was found to be 97%; on GAK (setting [4]), 100%; at TTK (setting [4]), 90%; at PIK3CB (setting [4]), 90%.

The values above are taken from publication PMC7026418, “The kinase polypharmacology landscape of clinical PARP inhibitors” (Scientific Reports, 2020).
